Test system: inflammatory cells in BALF (neutrophils, macrophages, lymphocytes)
Test: Inflammatory cell analysis in BALF of M. pneumoniae-infected mice
Assay type: in vivo, BALB/c mice
Details: for number of cells in BALF four days following treatment cessation: 192 h, similar to control group (P> 0.05)
Procedure: Adult BALB/c mice (20–22 g) were divided into a control group, a positive group, and compound 16C groups at low (20 mg/kg), medium (40 mg/kg), and high-dose (80 mg/kg) levels and oral and intramuscular tiamulin treatment groups (40 mg/kg). We formulated the above dose range based on the dose at which tiamulin was approved for injection (10–20 mg/kg) and the dose previously reported (45 mg/kg) ([EMA, 1999]; [Xiao et al., 2016]). In summary, we selected similar doses for compound 16C in vivo study. 40 mg/kg was used as an intermediate value, one-half of it as a low dose, and two times of it as a high dose. To prepare the challenge solution, logarithmic phase culture suspensions were centrifuged at 1700 g for 10 min, and the pellets were suspended in sterile PBS to obtain 1 × 10^9 CFU/mL. Before the challenge, mice were anesthetized with tribromoethanol (250 mg/kg, IP). Mice in the control groups were intratracheally inoculated with sterile PBS, whereas mice in the other groups were intratracheally challenged with 50 μL (1 × 10^9 CFU/mL) M. pneumoniae suspension once a day for 3 days. Compound 16C and tiamulin (tiamulin-IM group) dissolved using the method mentioned in pharmacokinetic studies, and the tiamulin fumarate soluble powder was dissolved in ddH2O for oral administration. After the final challenge, antibiotics were administered at low, medium, and high-dose levels (see above) at 10 a.m. and 10 p.m. daily for 4 consecutive days. Normal saline containing 5% DMSO and 5% Tween-80 was administered as control and positive groups by thigh intramuscular injection. To compare the efficacy of compound 16C and tiamulin under the same route of administration, we used the original tiamulin for intramuscular administration in the same formulation. On the other hand, tiamulin fumarate soluble powder, approved for oral administration to treat animal mycoplasma diseases in China, was administered to mice by gavage. Based on a clinical study of lefamulin in community-acquired bacterial pneumonia (CABP), subjects were administered twice a day and the 96 ± 24 h of starting treatment was an essential point for early clinical response (ECR) ([Paukner et al., 2022]). We therefore stopped treatment at 96 h and sampled at 192 h to explore whether the disease worsened after cessation of treatment. Bronchoalveolar lavage fluid (BALF) and lungs were collected at 0, 96, 192 h (Samples of 0 h were collected before starting treatment, and mice were fed ad libitum without drug treatment during 96–192 h) after the first dose, BALF for cytokine and cytological analysis and lung for histopathological evaluation.
Bronchoalveolar lavage was performed according to a standardized method ([Van Hoecke et al., 2017]). BALF was obtained following infusion of 0.5 mL PBS via tracheal cannulation into the lung twice (total 1 mL), and 200 µL was used for mycoplasma counts. The remaining BALF was centrifuged at 300 g for 10 min to separate the debris. The supernatants were stored at −80°C, and the debris was resuspended in the same volume of PBS containing red blood cell lysis buffer. A hemocytometer was used to count total cell numbers in BALF, and cell smears (Diff-Quik staining) were prepared to calculate the percentages of neutrophils, macrophages, and lymphocytes. IFN-γ, TNF-α, and CXCL1 levels in BALF samples were assessed using commercial ELISA kits using guidelines recommended by the manufacturer (Elabscience, Wuhan, China). Parallel data for each experimental group at each time point were obtained from six different mice.

[1] = Tiamulin(40mg/kg) group, time 0
[2] = Tiamulin(40mg/kg) group, time 96
[3] = Tiamulin(40mg/kg) group, time 192

C=CC1(C)CC(OC(=O)CSc2ccc(NC(=O)Cc3ccc([N+](=O)[O-])cc3)cc2)C2(C)C(C)CCC3(CCC(=O)C32)C(C)C1O (centres unmarked) [compound 16C, 22–((4-((4-nitrophenyl)acetamido)phenyl)thio)deoxypleuromutilin]
cell counts, total (AV) (20mg/kg, time 0): 48.3833 n*10^5
cell counts, 中 (neutrophils) (AV) (20mg/kg, time 0): 42.2036 n*10^5
cell counts, 巨 (macrophages) (AV) (20mg/kg, time 0): 5.64 n*10^5
cell counts, 淋 (lymphocytes) (AV) (20mg/kg, time 0): 0.5399 n*10^5
cell counts, total (AV) (20mg/kg, time 96): 8.192 n*10^5
cell counts, 中 (neutrophils) (AV) (20mg/kg, time 96): 1.83 n*10^5
cell counts, 巨 (macrophages) (AV) (20mg/kg, time 96): 3.157 n*10^5
cell counts, 淋 (lymphocytes) (AV) (20mg/kg, time 96): 3.205 n*10^5
cell counts, total (AV) (20mg/kg, time 192): 2.917 n*10^5
cell counts, 中 (neutrophils) (AV) (20mg/kg, time 192): 1.486 n*10^5
cell counts, 巨 (macrophages) (AV) (20mg/kg, time 192): 0.8746 n*10^5
cell counts, 淋 (lymphocytes) (AV) (20mg/kg, time 192): 0.5558 n*10^5
cell counts, total (AV) (40mg/kg, time 0): 47.0528 n*10^5
cell counts, 中 (neutrophils) (AV) (40mg/kg, time 0): 40.6758 n*10^5
cell counts, 巨 (macrophages) (AV) (40mg/kg, time 0): 4.508 n*10^5
cell counts, 淋 (lymphocytes) (AV) (40mg/kg, time 0): 1.869 n*10^5
cell counts, total (AV) (40mg/kg, time 96): 7.083 n*10^5
cell counts, 中 (neutrophils) (AV) (40mg/kg, time 96): 2.373 n*10^5
cell counts, 巨 (macrophages) (AV) (40mg/kg, time 96): 2.398 n*10^5
cell counts, 淋 (lymphocytes) (AV) (40mg/kg, time 96): 2.312 n*10^5
cell counts, total (AV) (40mg/kg, time 192): 3.683 n*10^5
cell counts, 中 (neutrophils) (AV) (40mg/kg, time 192): 1.76 n*10^5
cell counts, 巨 (macrophages) (AV) (40mg/kg, time 192): 0.9141 n*10^5
cell counts, 淋 (lymphocytes) (AV) (40mg/kg, time 192): 1.009 n*10^5
cell counts, total (AV) (80mg/kg, time 0): 35.9167 n*10^5
cell counts, 中 (neutrophils) (AV) (80mg/kg, time 0): 31.0489 n*10^5
cell counts, 巨 (macrophages) (AV) (80mg/kg, time 0): 3.441 n*10^5
cell counts, 淋 (lymphocytes) (AV) (80mg/kg, time 0): 1.427 n*10^5
cell counts, total (AV) (80mg/kg, time 96): 2.675 n*10^5
cell counts, 中 (neutrophils) (AV) (80mg/kg, time 96): 0.2904 n*10^5
cell counts, 巨 (macrophages) (AV) (80mg/kg, time 96): 0.8707 n*10^5
cell counts, 淋 (lymphocytes) (AV) (80mg/kg, time 96): 1.514 n*10^5
cell counts, total (AV) (80mg/kg, time 192): 2.742 n*10^5
cell counts, 中 (neutrophils) (AV) (80mg/kg, time 192): 0.4795 n*10^5
cell counts, 巨 (macrophages) (AV) (80mg/kg, time 192): 1.166 n*10^5
cell counts, 淋 (lymphocytes) (AV) (80mg/kg, time 192): 1.096 n*10^5
number of cells in BALF four days following treatment cessation (compound 16C 20, 40, and 80 mg/kg dose groups): lower than that of the positive control
total number of inflammatory cells in BALF compared with the positive controls (compound 16C low-dose (20 mg/kg IM), after 4 days of treatment (96 h)): not statistically significant

C=C[C@]1(C)C[C@@H](OC(=O)CSCCN(CC)CC)[C@]2(C)[C@H](C)CC[C@]3(CCC(=O)[C@H]32)[C@@H](C)[C@@H]1O [tiamulin, Tiamulin, reference compound]
cell counts, total (AV) [1]: 30.4125 n*10^5
cell counts, 中 (neutrophils) (AV) [1]: 26.5281 n*10^5
cell counts, 巨 (macrophages) (AV) [1]: 3.545 n*10^5
cell counts, 淋 (lymphocytes) (AV) [1]: 0.3394 n*10^5
cell counts, total (AV) [2]: 9.854 n*10^5
cell counts, 中 (neutrophils) (AV) [2]: 1.672 n*10^5
cell counts, 巨 (macrophages) (AV) [2]: 3.529 n*10^5
cell counts, 淋 (lymphocytes) (AV) [2]: 4.653 n*10^5
cell counts, total (AV) [3]: 10.35 n*10^5
cell counts, 中 (neutrophils) (AV) [3]: 0.1129 n*10^5
cell counts, 巨 (macrophages) (AV) [3]: 3.034 n*10^5
cell counts, 淋 (lymphocytes) (AV) [3]: 7.204 n*10^5
total number of inflammatory cells in BALF compared with the positive controls (tiamulin intramuscular 40 mg/kg, 96 h): significantly lower
number of cells in BALF four days following treatment cessation (tiamulin intramuscular 40 mg/kg): lower than that of the positive control
total number of inflammatory cells in BALF compared with the positive controls (tiamulin orally administered 40 mg/kg, 96 h): not statistically significant
